Source: patent US20220288004A1, “TREATMENT AND PREVENTION OF AGING RELATED-DISEASE AND/OR AGING BY THE INHIBITION OF SPHINGOLIPIDS” (ECOLE POLYTECHNIQUE FEDERALE DE LAUSANNE (EPFL), priority 2019, published 2022)

Assays:
[1] = tested on: quadriceps muscle of aged C57Bl/6JRj mice; assay: Quadriceps transcript profiling using RNA sequencing; type: in vivo, mouse; conditions: aged myriocin vs DMSO treated mice
Method: To identify biological pathways whose modulation could explain improved muscle function upon myriocin treatment, transcriptomes of quadriceps muscle of aged myriocin and DMSO treated mice using RNA sequencing were compared. Gene set enrichment analysis (GSEA) ranking transcripts based on their fold change were performed.
Quadriceps transcript profiling using RNA sequencing. Quadriceps muscles were collected and snap-frozen in liquid nitrogen from C57Bl/6JRj mice undergoing intraperitoneal myriocin treatment for 10 weeks on a chow diet starting at the age of 18 months. RNA was isolated using Direct-zol RNA kit (Zymo, Irvine, Calif.). RNA quality was assessed using Agilent 2100 BioAnalyzer (Agilent, Santa Clara, Calif.). Samples with RIN≥8, 28S/18S≥1.0, and c≥20 ng/μL were included in analyses. […] Sequencing libraries were prepared by BGI genomics using the DNBsea™ technology. Paired end sequencing with 100 cycles was performed using the BGISEQ-500 instrument. After removal of adaptor sequences and low quality reads, at least 56 million reads per sample was obtained. SOAPnuke was used to obtain clean reads (parameters -l 15, -q 0.2, -n 0.05). Reads were mapped using STAR aligner version 2.5.2b using the mouse GRCm38 genome assembly and the release 91 GTF annotation from Ensembl. Htseq-count version 0.6.0 was used to count the number of reads mapping to genes (mode=union, type=exon, idattr=gene_id). Transcript displaying higher expression than log 2(CPM+1)>0.5 in at least 3 samples were included in analyses. Differential gene expression analysis and expression normalization was performed using voom, ‘variance modeling at the observational level’, adjusting for sacrifice date. At individual gene level, no gene passed the multiple testing correction threshold. Benjamini-Hochberg correction for multiple testing was used. For gene set enrichment analysis using gene ontology (GO) categories, transcripts were ordered according to their log 2-transformed fold change, and 100,000 permutations were used. Adjusted p-value<0.05 was considered significant.

[2] = tested on: muscle stem cells (MuSCs); assay: MuSC count in muscle of treated aged mice (FACS, PAX7 immunostaining); type: in vivo, mouse
Description: Muscle stem cells (MuSCs) are capable of giving rise to mature muscle fibers, and their regenerative capacity has been reported to be impaired upon aging. […] Consistent with this, PAX7 expression correlated negatively with the first PC of the ceramide synthetic pathway in both human (FIG. 3e) and mouse (FIG. 3f) skeletal muscle. To study whether increased Pax7 transcript abundance in skeletal muscle reflects elevated MuSC count, a7 integrin/CD34 double positive cells were isolated from the hind-limbs using fluorescence-activated cell sorting (FACS).
Stem cell isolation. Gastrocnemius, soleus, and quadriceps muscles from both hindlimbs were excised and transferred into PBS on ice. […] Stained cells were analyzed and sorted using the FACSAria II instrument (BD Biosciences). […]
Histology. […] Microscopy images of fluorescence from muscle fibers were analyzed using the ImageJ software. Centralized nuclei percent, minimal Feret diameter and cross-sectional area in TA muscles were determined using the ImageJ software quantification of laminin, dystrophin, and DAPI-stained muscle images from VS120-S6-W slides scanner (Olympus). […] The mean cross-sectional area of muscle fibers was calculated as the average cross-sectional area of 2,000 fibers per from sample. 7-8 mouse samples per condition were used for histological quantification of donor mice. […] For each quantification, 3 or more mice were used.

[3] = tested on: human primary myoblasts from IBM donors; assay: Proteostat staining of IBM patient myoblasts; type: cell-based; conditions: 30 μM MYR for 24 h
Method: (§1) FIG. 16. Quantitative Proteostat signal normalized over the number of cells in human primary myoblasts from IBM donors (above) and APPSwe-expressing C2C12 myoblasts (below) decreases after treatment with 30 μM MYR for 24 h. Values are expressed as mean±s.e.m. ***P:0.001; ****P:0.0001. Differences between two groups were assessed using Student's two-tailed t-tests (error bars: 95% confidence intervals).
Cell lines from IBM patients featuring impaired proteostasis were obtained. This was validated using Proteostat staining which targets general disruption in proteostasis.

[4] = tested on: APPSwe-expressing C2C12 myoblasts; assay: Proteostat staining of APPSwe-expressing C2C12 myoblasts; type: cell-based, mouse; conditions: 30 μM MYR for 24 h
Method: as §1

CCCCCCC(=O)CCCCCCC=CCC(O)C(O)C(N)(CO)C(=O)O (stereo not drawn) [myriocin, 2-Amino-3,4-dihydroxy-2-(hydroxymethyl)-14-oxoicos-6-enoic acid]
expression of Pax7 in quadriceps muscle [1]: upregulated
most downregulated pathways (gene set enrichment analysis) ([1]; quadriceps RNA-seq): lipid metabolism and inflammation
upregulated pathways (gene set enrichment analysis) ([1]; quadriceps RNA-seq): muscle contraction and differentiation
Myog and Myf5 transcripts in skeletal muscle ([1]; quadriceps): upregulated
number of PAX7+ muscle cells in TA tissue sections ([2]; aged myriocin treated mice): elevated number
number of MuSCs in hindlimbs (a7 integrin/CD34 double positive cells, FACS) ([2]; young, aged, and aged myriocin treated mice): restored the MuSC pool of aged mice close to that of young mice
Proteostat signal normalized over the number of cells (protein aggregates) [3]: clearing protein aggregates
Proteostat signal normalized over the number of cells (protein aggregates) ([3]; listed as MYR): decreases
Proteostat signal normalized over the number of cells [4]: decreases
